From patent publication US20250242064A1, “CXCR4-TARGETING COMPOUNDS, AND METHODS OF MAKING AND USING THE SAME” (PROVINCIAL HEALTH SERVICES AUTHORITY, priority 2022, published 2025)
Where a SMILES comes first, the peptide text is derived from it. Bridges are numbered along the chain shown (N, C = ends). [ ]: non-standard residue; d: D form. The star is where a group is joined. X1 = O=C(O)CN1CCN(CC(=O)O)CCN(CC(=O)N[C@@H](CS(=O)(=O)O)C(=O)N[C@@H](CCCCNC(=O)CCCc2ccc(I)cc2)C(=O)*)CCN(CC(=O)O)CC1; X6 = COc1ccc(CCCC(=O)NCCCC[C@H](NC(=O)[C@H](CS(=O)(=O)O)NC(=O)CN2CCN(CC(=O)O)CCN(CC(=O)O)CCN(CC(=O)O)CC2)C(=O)*)cc1; 2Nal = N[C@@H](Cc1ccc2ccccc2c1)C(=O)O; Lys(iPr) = CC(C)NCCCC[C@H](N)C(=O)O

Assay: in vivo
Design: species or system mice
Settings: male, NOD.Cg-Rag1tm1Mom Il2rgtm1Wjl/SzJ (NRG), mouse, iv, total radioactivity
Experimental: The Z138 Mantle cell lymphoma cell line was purchased from the American Type Culture Collection (ATCC©CRL-3001). The cell line was cultured in a 5% CO2 atmosphere at 37° C. in a humidified incubator with IMDM medium supplemented with 10% fetal bovine serum, 100 I.U./mL penicillin, and 100 μg/mL streptomycin.
[^68Ga]GaCl3 was eluted from an iThemba Labs generator with a total of 4 mL of 0.1 M HCl. The eluted [^68Ga]GaCl3 solution was added to 2 mL of concentrated HCl. This radioactive mixture was then added to a DGA resin column and washed with 3 mL of 5 M HCl. The column was then dried with air and the [^68Ga]GaCl3 (0.10-0.50 GBq) was eluted with 0.5 mL of water into a vial containing a solution of the unlabeled precursor (25 μg) in 0.7 mL HEPES buffer (2 M, pH 5.3). The reaction mixture was heated in a microwave oven (Danby; DMW7700WDB) for 1 min at power setting 2. The mixture was purified by semi-prep HPLC and quality control was performed via analytical HPLC with the co-injection of the unlabeled standard with a one-twelfth of the radiotracer. Radiochemical yields (decay-corrected) were >50% and radiochemical purities were >95%.
Animal experiments were performed in accordance with guidelines established by the Canadian Council on Animal Care, under a research protocol approved by the Animal Ethics Committee of the University of British Columbia. For all studies, male NOD.Cg-Rag1tm1Momll2rgtm1Wjl/SzJ (NRG) mice were used and cells injected in a 100 μL solution of 1:1 ratio of PBS/Matrigel. For preclinical imaging and biodistribution studies, 5×10^6 cells of Z138, cells were subcutaneously inoculated on the left or right flank and tumors were grown to a size of 200-300 mm^3. […]
Under isoflurane anesthesia (2-2.5% isoflurane in 2 L/min 02), mice were injected intravenously with [^68Ga]Ga-BL34L6 or [^68Ga]Ga-BL34L7. Mice were euthanized by CO2 inhalation after anesthesia with isoflurane. Tissues were harvested, washed in PBS, patted dry, weighed, and then assayed radioactivity on a gamma counter. Counted radioactivities were converted to percentage injected dose per gram of tissue (% ID/g) using a calibration curve.

[1] = Biodistribution: Small Intestine

Row | Compound | tissue uptake at 1 h (Biodistribution: Adrenals) | tissue uptake at 1 h (Biodistribution: Blood) | tissue uptake at 1 h (Biodistribution: Bone) | tissue uptake at 1 h (Biodistribution: Brain) | tissue uptake at 1 h (Biodistribution: Heart) | tissue uptake at 1 h (Biodistribution: Kidneys) | tissue uptake at 1 h (Biodistribution: Liver) | tissue uptake at 1 h (Biodistribution: Lungs) | tissue uptake at 1 h (Biodistribution: Muscle) | tissue uptake at 1 h (Biodistribution: Pancreas) | tissue uptake at 1 h [1] | tissue uptake at 1 h (Biodistribution: Spleen) | tissue uptake at 1 h (Biodistribution: Stomach) | tissue uptake at 1 h (Biodistribution: Testes) | tissue uptake at 1 h (Biodistribution: Z138 Tumor) | tissue to tissue ratio at 1 h (Ratio Tumor-to-Blood) | tissue to tissue ratio at 1 h (Ratio Tumor-to-Bone) | tissue to tissue ratio at 1 h (Ratio Tumor-to-Kidney) | tissue to tissue ratio at 1 h (Ratio Tumor-to-Muscle) | tissue to tissue ratio at 1 h (Ratio Tumor-to-Pancreas) | other results
1 | CC(C)NCCCC[C@H](NC(=O)[C@H]1CCC(=O)N[C@@H](CCCCNC(=O)[C@H](CCCCNC(=O)CCCc2ccc(I)cc2)NC(=O)[C@H](CS(=O)(=O)O)NC(=O)CN2CCN(CC(=O)O)CCN(CC(=O)O)CCN(CC(=O)O)CC2)C(=O)N[C@@H](Cc2ccc(O)cc2)C(=O)N[C@@H](CCCCNC(C)C)C(=O)N[C@H](CCCNC(=N)N)C(=O)N[C@@H](Cc2ccc3ccccc3c2)C(=O)N[C@H](C)C(=O)N1)C(N)=O [[^68Ga]Ga-BL34L11, metal not drawn] (K(X1)Y[Lys(iPr)][dR][2Nal][dA][dE][Lys(iPr)]-NH2; lactam N-7) | 4.99 %ID/g | 18.7 %ID/g | 1.53 %ID/g | 0.29 %ID/g | 4.53 %ID/g | 5.39 %ID/g | 3.7 %ID/g | 8.36 %ID/g | 1.39 %ID/g | 1.67 %ID/g | 1.28 %ID/g | 2.35 %ID/g | 0.97 %ID/g | 2.14 %ID/g | 6.55 %ID/g | 0.35 | 4.32 | 1.27 | 4.85 | 3.91 | tissue uptake at 3 h (Biodistribution: Adrenals): 2.34 %ID/g; tissue uptake at 3 h (Biodistribution: Blood): 13.4 %ID/g; tissue uptake at 3 h (Biodistribution: Bone): 1.23 %ID/g; tissue uptake at 3 h (Biodistribution: Brain): 0.22 %ID/g; tissue uptake at 3 h (Biodistribution: Heart): 3.17 %ID/g; tissue uptake at 3 h (Biodistribution: Kidneys): 3.9 %ID/g; tissue uptake at 3 h (Biodistribution: Liver): 3.02 %ID/g; tissue uptake at 3 h (Biodistribution: Lungs): 6.64 %ID/g; tissue uptake at 3 h (Biodistribution: Muscle): 1.08 %ID/g; tissue uptake at 3 h (Biodistribution: Pancreas): 1.42 %ID/g; tissue uptake at 3 h [1]: 1.11 %ID/g; tissue uptake at 3 h (Biodistribution: Spleen): 2 %ID/g; tissue uptake at 3 h (Biodistribution: Stomach): 0.48 %ID/g; tissue uptake at 3 h (Biodistribution: Testes): 2.59 %ID/g; tissue uptake at 3 h (Biodistribution: Z138 Tumor): 11.3 %ID/g; tissue to tissue ratio at 3 h (Ratio Tumor-to-Blood): 0.85; tissue to tissue ratio at 3 h (Ratio Tumor-to-Bone): 10.3; tissue to tissue ratio at 3 h (Ratio Tumor-to-Kidney): 2.91; tissue to tissue ratio at 3 h (Ratio Tumor-to-Muscle): 10.5; tissue to tissue ratio at 3 h (Ratio Tumor-to-Pancreas): 7.95
2 | COc1ccc(CCCC(=O)NCCCC[C@H](NC(=O)[C@H](CS(=O)(=O)O)NC(=O)CN2CCN(CC(=O)O)CCN(CC(=O)O)CCN(CC(=O)O)CC2)C(=O)NCCCC[C@@H]2NC(=O)CC[C@H](C(=O)N[C@@H](CCCCNC(C)C)C(N)=O)NC(=O)[C@@H](C)NC(=O)[C@H](Cc3ccc4ccccc4c3)NC(=O)[C@@H](CCCNC(=N)N)NC(=O)[C@H](CCCCNC(C)C)NC(=O)[C@H](Cc3ccc(O)cc3)NC2=O)cc1 [[^68Ga]Ga-BL34L7, metal not drawn] (K(X6)Y[Lys(iPr)][dR][2Nal][dA][dE][Lys(iPr)]-NH2; lactam N-7) | 0.52 %ID/g | 1.73 %ID/g | 0.4 %ID/g | 0.04 %ID/g | 0.41 %ID/g | 2.45 %ID/g | 1.24 %ID/g | 1.75 %ID/g | 0.14 %ID/g | 0.23 %ID/g | 0.34 %ID/g | 0.59 %ID/g | 0.09 %ID/g | 0.44 %ID/g | 11.1 %ID/g | 6.5 | 37.2 | 4.51 | 87.1 | 9.07 | 
